Literature values as cited in patent US20260345798A1, “COMPOUNDS AND METHODS OF USE THEREOF” (Virginia Commonwealth University, priority 2023, published 2026).

What was measured:
[1] = system: second PDZ2 domain of MDA-9/Syntenin; conditions: cited from earlier work
T cells = conditions: cited from earlier work
MDA-9/Syntenin = target: T1, MDA-9/Syntenin (Homo sapiens, UniProt O00560); conditions: literature comparison; cited from earlier work
T1 sequence (O00560 1-298): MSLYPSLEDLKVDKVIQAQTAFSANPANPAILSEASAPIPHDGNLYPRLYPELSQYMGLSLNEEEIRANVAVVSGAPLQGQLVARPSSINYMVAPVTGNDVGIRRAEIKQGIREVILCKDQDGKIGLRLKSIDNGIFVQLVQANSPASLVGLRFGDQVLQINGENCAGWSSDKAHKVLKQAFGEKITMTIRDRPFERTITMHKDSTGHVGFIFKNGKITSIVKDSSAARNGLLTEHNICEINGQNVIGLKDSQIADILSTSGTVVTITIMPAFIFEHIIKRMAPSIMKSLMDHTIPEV

cancer invasion = conditions: in vitro and in vivo, multiple experimental animal models; cited from earlier work
[2] = system: PDZ domains in other sequence-similar proteins; conditions: cited from earlier work
[3] = system: non-transformed normal or transformed cells; conditions: other cancer contexts; cited from earlier work

For `Cc1cc(NC(=O)c2nc3nc4c(c(=O)n3[nH]2)CCC4)c(C)cc1NC(=O)CCc1nnc(-c2ccccc2)o1` [PDZ1i], the “binding to PDZ2 domain of MDA-9/Syntenin” value [1] is given as “without appreciable binding”, the “T cell infiltration into the tumor environment” value (T cells) is given as “causes T cell infiltration into the tumor environment” and the Kd (MDA-9/Syntenin) is given as 23 µM. For the same compound, the “blocking of cancer invasion” value (cancer invasion) was “effectively blocks cancer invasion”, the “binding to PDZ domains in other sequence-similar proteins” value [2] was “without appreciable binding” and the “detrimental effect on cells” value [3] was “not detrimental”.
